In ChEMBL document CHEMBL3808364, “The SAR of brain penetration for a series of heteroaryl urea FAAH inhibitors” (Bioorg Med Chem Lett, 2016):
Active and inactive are the calls of the source. The rule behind the calls is not given here.

Key:
[1] = tested on: Rattus norvegicus; experiment: Inhibition of FAAH in Sprague-Dawley rat brain homogenate assessed as time duration needed for enzyme activity recovery by measuring [3H]-anandamide hydrolysis at 20 mg/kg by liquid scintillation analysis; type: functional
[2] = Dissociation constant, pKa of the compound at pH 7.2; type: physicochemical
[3] = tested on: Rattus norvegicus; experiment: Inhibition of FAAH in Sprague-Dawley rat brain homogenate assessed as increase in PEA levels at 20 mg/kg after 0.5 to 4 hrs by […]; type: functional, organism-based
[4] = tested on: Rattus norvegicus; experiment: Inhibition of FAAH in Sprague-Dawley rat brain homogenate assessed as increase in OEA levels at 20 mg/kg after 0.5 to 4 hrs by […]; type: functional, organism-based
[5] = Ratio of drug level in brain to plasma in Sprague-Dawley rat at 10 mg/kg via oral gavage; type: ADME, organism-based; conditions: read-out: BPR
[6] = Ratio of drug level in brain to plasma in Sprague-Dawley rat at 20 mg/kg via oral gavage; type: ADME, organism-based; conditions: read-out: BPR
[7] = tested on: Rattus norvegicus; experiment: Inhibition of FAAH in Sprague-Dawley rat brain homogenate assessed as increase in PEA levels at 0.1 to 100 mg/kg measured 4 hrs post dosing by […]; type: functional, organism-based
[8] = tested on: Rattus norvegicus; experiment: Inhibition of FAAH in Sprague-Dawley rat brain homogenate assessed as increase in OEA levels at 0.1 to 100 mg/kg measured 4 hrs post dosing by […]; type: functional, organism-based
[9] = biological target: T1, Fatty-acid amide hydrolase 1 (Rattus norvegicus, UniProt P97612); experiment: Apparent inhibition of recombinant rat FAAH expressed in SK-N-MC cells assessed as [3H]-anandamide hydrolysis after 1 hr by liquid scintillation analysis; type: cell-based
T1 sequence (P97612 whole entry): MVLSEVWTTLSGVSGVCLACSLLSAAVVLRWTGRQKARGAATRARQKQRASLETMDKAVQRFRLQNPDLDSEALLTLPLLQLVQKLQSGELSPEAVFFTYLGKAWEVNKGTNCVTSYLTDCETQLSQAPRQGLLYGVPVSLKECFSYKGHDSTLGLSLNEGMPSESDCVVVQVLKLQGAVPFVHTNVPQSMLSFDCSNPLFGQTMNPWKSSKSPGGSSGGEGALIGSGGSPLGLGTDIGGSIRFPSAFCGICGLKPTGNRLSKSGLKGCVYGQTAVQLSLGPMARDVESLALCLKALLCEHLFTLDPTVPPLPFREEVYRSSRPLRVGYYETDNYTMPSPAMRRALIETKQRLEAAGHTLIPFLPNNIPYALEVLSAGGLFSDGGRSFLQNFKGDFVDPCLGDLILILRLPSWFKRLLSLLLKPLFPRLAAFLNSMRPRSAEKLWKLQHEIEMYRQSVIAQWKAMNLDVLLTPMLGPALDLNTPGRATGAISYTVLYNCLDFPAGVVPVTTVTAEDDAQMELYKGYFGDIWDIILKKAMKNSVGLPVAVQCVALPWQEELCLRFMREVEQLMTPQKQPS

[10] = biological target: T2, Fatty-acid amide hydrolase 1 (Homo sapiens, UniProt O00519)
T2 sequence (O00519 whole entry): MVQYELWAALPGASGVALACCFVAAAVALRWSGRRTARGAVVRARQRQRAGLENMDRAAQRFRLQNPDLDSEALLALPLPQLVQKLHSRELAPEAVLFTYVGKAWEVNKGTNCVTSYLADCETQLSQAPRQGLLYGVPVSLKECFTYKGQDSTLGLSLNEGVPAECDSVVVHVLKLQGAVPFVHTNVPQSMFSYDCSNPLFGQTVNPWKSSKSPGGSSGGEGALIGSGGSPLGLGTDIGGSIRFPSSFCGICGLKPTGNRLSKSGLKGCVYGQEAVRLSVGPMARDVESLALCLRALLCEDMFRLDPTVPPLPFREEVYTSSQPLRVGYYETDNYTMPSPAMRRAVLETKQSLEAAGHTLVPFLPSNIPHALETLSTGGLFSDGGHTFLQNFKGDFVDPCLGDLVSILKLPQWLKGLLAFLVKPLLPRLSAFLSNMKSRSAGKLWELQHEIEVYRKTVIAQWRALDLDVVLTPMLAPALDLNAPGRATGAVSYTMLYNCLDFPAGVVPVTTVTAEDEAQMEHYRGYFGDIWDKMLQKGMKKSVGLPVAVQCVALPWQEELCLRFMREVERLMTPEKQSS

[11] = Clearance in Sprague-Dawley rat; type: ADME, organism-based; conditions: in vivo
[12] = Volume of distribution at Steady state in Sprague-Dawley rat; type: ADME, organism-based; conditions: in vivo, read-out: Vdss
[13] = Oral bioavailability in Sprague-Dawley rat; type: ADME, organism-based; conditions: in vivo
[14] = tested on: Rattus norvegicus; experiment: Inhibition of FAAH in Sprague-Dawley rat brain homogenate assessed as reduction in residual activity measured as [3H]-anandamide hydrolysis at 20 mg/kg after 30 mins by liquid scintillation analysis; conditions: read-out: INH
[15] = tested on: Rattus norvegicus; experiment: Inhibition of FAAH in Sprague-Dawley rat brain homogenate assessed as residual activity measured as [3H]-anandamide hydrolysis at 20 mg/kg after 1 hr by liquid scintillation analysis; type: functional
[16] = tested on: Rattus norvegicus; experiment: Inhibition of FAAH in Sprague-Dawley rat brain homogenate assessed as residual activity measured as [3H]-anandamide hydrolysis at 20 mg/kg after 4 hrs by liquid scintillation analysis; type: functional
[17] = tested on: Plasma; experiment: Drug uptake in Sprague-Dawley rat plasma at 20 mg/kg via oral gavage after 4 hrs by LC-MS/MS analysis; type: ADME, organism-based; conditions: in vivo
[18] = tested on: Brain; experiment: Drug uptake in Sprague-Dawley rat brain at 20 mg/kg via oral gavage after 4 hrs by LC-MS/MS analysis; type: ADME, organism-based; conditions: in vivo
[19] = Dissociation constant, pKa of the compound; type: physicochemical
[20] = Ratio of drug level in brain to plasma in Sprague-Dawley rat at 0.6 mg/kg via oral gavage; type: ADME, organism-based; conditions: read-out: BPR
[21] = Ratio of drug level in brain to plasma in Sprague-Dawley rat at 6 mg/kg via oral gavage; type: ADME, organism-based; conditions: read-out: BPR
[22] = tested on: Rattus norvegicus; experiment: In-vivo reversible inhibition of FAAH in Sprague-Dawley rat brain homogenate assessed as residual activity measured as [3H]-anandamide hydrolysis after 48 hrs by liquid scintillation analysis; type: functional, organism-based
[23] = tested on: Rattus norvegicus; experiment: Inhibition of FAAH in Sprague-Dawley rat brain homogenate assessed as residual activity measured as [3H]-anandamide hydrolysis at 6 mg/kg after 4 hrs by liquid scintillation analysis; type: functional
[24] = tested on: Rattus norvegicus; experiment: Inhibition of FAAH in Sprague-Dawley rat brain homogenate assessed as time duration needed for enzyme activity recovery by measuring [3H]-anandamide hydrolysis at 6 mg/kg by liquid scintillation analysis; type: functional
[25] = organism: Rattus norvegicus; conditions: Sprague-Dawley, Brain, 6 mg/kg
Description: Inhibition of FAAH in Sprague-Dawley rat brain homogenate assessed as increase in PEA levels at 6 mg/kg after 0.5 to 4 hrs by liquid scintillation analysis

[26] = organism: Rattus norvegicus; conditions: Sprague-Dawley, Brain, 6 mg/kg; remark: listed apart in the source
Description: Inhibition of FAAH in Sprague-Dawley rat brain homogenate assessed as increase in OEA levels at 6 mg/kg after 0.5 to 4 hrs by liquid scintillation analysis

[27] = tested on: Rattus norvegicus; experiment: Inhibition of FAAH in Sprague-Dawley rat brain homogenate assessed as residual activity measured as [3H]-anandamide hydrolysis at 20 mg/kg within 30 mins by liquid scintillation analysis; type: functional
[28] = organism: Rattus norvegicus; conditions: Sprague-Dawley, Brain, 20 mg/kg
Description: Inhibition of FAAH in Sprague-Dawley rat brain homogenate assessed as reduction in residual activity measured as [3H]-anandamide hydrolysis at 20 mg/kg measured after 0.5 to 6 hrs by liquid scintillation analysis

SMILES | Time [1] | FAAH inhibition (PEA level increase), active/inactive [3] | OEA level increase (activity call) [4] | Kp [6] | IC50 [9] | IC50 [10] | clearance [11] | Vd [12] | bioavailability [13] | further results
O=C(Nc1cccc2nccn12)N1CCN(Cc2cccc(Oc3ccc(Cl)cc3)c2)CC1 | 24 h | Active | Active |  |  |  |  |  |  | pKa [2]: 6.8
O=C(Nc1ccccc1)N1CCN(Cc2cccc(Oc3ccc(Cl)cc3)c2)CC1 | 24 h |  |  |  |  |  |  |  |  | Kp [5]: 3.64
O=C(Nc1cccnc1)N1CCN(Cc2cccc(Oc3ccc(C(F)(F)F)cc3)c2)CC1 | 24 h |  |  | 1.99 |  |  |  |  |  | inhibition [7]: Active; inhibition [8]: Active
O=C(Nc1cccnc1)N1CCC(Cc2cccc(Oc3ccc(Cl)cc3)c2)CC1 | 24 h | Active | Active | 2.26 | 215 nM | 4.3 nM |  |  |  | 
O=C(Nc1cccnc1)N1CCCC(Cc2cccc(Oc3ccc(F)cc3)c2)C1 (stereo unspecified) | 24 h | Active | Active | 0.33 | 41 nM | 28 nM |  |  |  | 
O=C(Nc1ccon1)N1CCN(Cc2cccc(Oc3ccc(Cl)cc3)c2)CC1 | 24 h | Active | Active |  |  |  | 10 mL/min/kg | 2.6 L/kg | 50% | 
O=C(Nc1cnc2ccccn12)N1CCN(Cc2cccc(Oc3ccc(Cl)cc3)c2)CC1 | 24 h | Active | Active |  |  |  | 63.3 mL/min/kg | 10.7 L/kg | 60% | pKa [2]: 6.8; inhibition in vivo at 20 mg/kg [14]: 60%; Activity [15]: < 10%; Activity [16]: <5%
O=C(Nc1cccnc1)N1CCN(Cc2cc(Cl)cc(Oc3ccc(Cl)cc3)c2)CC1 | 24 h | Active | Active | 1.26 | 76 nM | 8 nM |  |  |  | Drug uptake [17]: Dose-dependent effect; Drug uptake [18]: Dose-dependent effect
O=C(Nc1cnccc1Cl)N1CCN(Cc2cccc(Oc3ccc(F)cc3)c2)CC1 | 24 h | Active | Active | 0.67 | 48 nM | 3.3 nM |  |  |  | 
O=C(Nc1nnn[nH]1)N1CCN(Cc2cccc(Oc3ccc(Cl)cc3)c2)CC1 |  |  |  |  |  |  | 3.33 mL/min/kg | 1.1 L/kg | 100% | pKa [2]: 4.9
O=C(Nc1cccnc1)N1CCC(Cc2cccc(Oc3ccc(Cl)cn3)c2)CC1 | 24 h | Active | Active | 0.45 | 22 nM | 1 nM |  |  |  | 
O=C(Nc1cc[nH]n1)N1CCN(Cc2cccc(Oc3ccc(Cl)cc3)c2)CC1 | 24 h | Active | Active |  |  |  | 8.33 mL/min/kg | 2 L/kg | 75% | pKa [19]: 2.5
O=C(Nc1cccnc1)N1CCN(Cc2cccc(Oc3ccc(F)cc3)c2)CC1 | 24 h | Active | Active | 1.57 | 290 nM | 16 nM | 10 mL/min/kg | 4 L/kg | 100% | 
O=C(Nc1cccnc1)N1CCN(Cc2cccc(Oc3ccc(Cl)cc3)c2)CC1 | 24 h |  |  | 2.62 |  |  | 11.5 mL/min/kg | 3.2 L/kg |  | pKa [19]: 5.25; Kp [20]: 2.62; Kp [21]: 2.62; inhibition [22]: Active
O=C(Nc1cccnc1)N1CCN(Cc2cccc(Oc3ccc(Br)cc3)c2)CC1 | 24 h |  |  | 1.58 | 20 nM | 2.4 nM | 13.3 mL/min/kg | 2.8 L/kg | 100% | 
N#Cc1ccncc1NC(=O)N1CCN(Cc2cccc(Oc3ccc(Cl)cc3)c2)CC1 | 24 h | Active | Active | 3.28 | 17 nM | 17 nM |  |  |  | pKa [19]: 1.9
O=C(Nc1nn[nH]n1)N1CCN(Cc2cccc(Oc3ccc(Cl)cc3)c2)CC1 |  |  |  |  |  |  |  |  |  | Activity [23]: <10%; Time [24]: 24 h; inhibition [25]: Active; inhibition [26]: Active
O=C(Nc1cnccc1Cl)N1CCN(Cc2cccc(Oc3ccc(Cl)cc3)c2)CC1 | 24 h | Active | Active | 1.18 | 20 nM | 1.3 nM | 46.5 mL/min/kg | 3.33 L/kg | 18% | pKa [19]: 3.85
O=C(Nc1cnccn1)N1CCN(Cc2cccc(Oc3ccc(Cl)cc3)c2)CC1 | 24 h | Active | Active |  | 84 nM |  | 15.5 mL/min/kg | 4.11 L/kg | 35% | pKa [19]: 0.6; Activity [27]: 10%; inhibition [28]: Active
O=C(Nc1noc2ccccc12)N1CCN(Cc2cccc(Oc3ccc(Cl)cc3)c2)CC1 | 24 h | Active | Active |  | 8 nM |  | 9.33 mL/min/kg | 2.48 L/kg | 44% | 
